Test results published in paper PMC3552814, “Elimination Rates of Dioxin Congeners in Former Chlorophenol Workers from Midland, Michigan” (Environmental Health Perspectives, 2012).
Read-outs that look alike come from different tables or passages of the source.

Key:
[1] = Serum lipid-adjusted dioxin congener concentrations in former chlorophenol workers, repeated blood sampling 2004–2005 and 2010; format: in vivo, human; details: for Mean percent change: change in concentration from 2004–2005 to 2010; for Concentration 2004–2005, Mean ± SD / Concentration 2010, Mean ± SD: serum, 56 Midland study participants
Text: Participant selection. The selection strategy called for drawing a stratified random sample of workers included in the previous 2004–2005 blood draw. […] We used the 95th percentile of age-specific U.S. population concentrations for each congener identified in the National Health and Nutrition Examination Survey (NHANES; [Centers for Disease Control and Prevention 2009]) to define the upper ends of the background ranges. Nine strata were formed based jointly on previous serum levels of TCDD (high, > 50 ppt; moderate, 10–50 ppt; and background, < 10 ppt), representing workers in predominantly TCP processes, and OCDD (high, > 5,000 ppt; moderate, 1,000–5,000 ppt; and background, < 1,000 ppt), representing those with experience in PCP processes. We attempted to enroll participants representing each of these strata. Invitations to participate were sent to our target sample of 72 workers who were selected based on these congener concentration criteria.
Questionnaire and data collection methods. We conducted the serum analyses in 2010 using the same protocol, procedures, and laboratory as in the 2004–2005 blood draw ([Collins et al. 2006]). The serum samples were tested for 7 polychlorinated dibenzo-p-dioxins (PCDDs), 10 polychlorinated dibenzofurans (PCDFs), and 15 polychlorinated biphenyls (PCBs). […] The study was conducted pursuant to approval and oversight by the Dow Human Subjects Review Board in Midland, Michigan. All study participants gave informed consent.
On the day of examination in the fall of 2010, participants donated blood and completed the same questionnaire originally administered during the 2004–2005 sampling effort ([Collins et al. 2006]). The questionnaire addressed dietary and smoking habits, work history, and recent changes in weight. Height, weight, and blood pressure were also measured. Diagnosis of chloracne during occupational exposure was extracted from workplace medical records; the criteria for chloracne diagnosis were defined previously by [Bond et al. (1990)].

[2] = Elimination half-lives from serial serum samples, first-order one-compartment model; format: in vivo; details: human, serum (lipid-adjusted), other: occupational exposure, 56 participants
Text: Elimination rates. Changes in measured concentrations of persistent compounds such as PCDDs and PCDFs reflect not only intrinsic elimination rates but also any ongoing intakes of the compounds and changes in the volume of distribution, in this case, the volume of body lipids ([Bartell 2012]; [Ritter et al. 2009], [2011]). If current body concentrations are high relative to steady-state concentrations associated with current background intake rates, apparent elimination rates will approximate intrinsic elimination rates ([Bartell 2012]; [van der Molen et al. 1998]). If, on the other hand, background intakes are high compared with current body concentrations, the estimated apparent elimination rate will be lower than the intrinsic rates. Robust data regarding ongoing congener intake rates were not available, so the elimination rates were first calculated based on net rate of change of the congeners, which reflects both intrinsic elimination rates and unmeasured intake rates, termed “apparent” elimination rates.
We calculated apparent elimination rates in two ways: based on changes in concentration, or based on changes in estimated body amounts. For the former approach, concentrations of congener i in 2005 and 2010 (Ci,2005 and Ci,2010, respectively) and time between sampling dates (Δt), were used to estimate the elimination rate (ki):
Concentrations of lipophilic compounds may change in response to changes in the volume of distribution (increase or decrease in amount of body fat), even in the absence of any elimination or additional exposure ([Charlier et al. 2002]; [Chevrier et al. 2000]; [Hue et al. 2006]; [Imbeault et al. 2001]; [Pelletier et al. 2002]; [Walford et al. 1999]). Thus, we also estimated the rate of change in estimated whole body mass of each congener. For the approach based on changes in estimated mass of dioxins in the body, the congener concentrations in 2005 and 2010 were replaced by the estimated amounts, A, of congener i in the body:
where PBF is percent body fat estimated using an age-, sex-, and body mass index (BMI)-specific formula, which has been validated in adults over a range of ages including those of the participants in this study ([Deurenberg et al. 1991]), BW is body weight in kilograms, and Ci is the serum lipid–adjusted concentration of congener i. This approach assumes that the compound is distributed solely in body lipid. The resulting amount, Ai, calculated for each sampling time and congener was used in Equation 1 in place of concentration for calculating the apparent whole-body mass-based elimination rate.
Elimination half-lives (t1/2) corresponding to the estimated elimination rates, (k) were calculated for some comparisons with previous literature:
Inclusion of plausible background exposures. […] Changes in concentration or estimated mass of compound in the body reflect the net effect of both elimination and any ongoing exposures between sampling time points. Under a first-order model, the amount of compound in the body in 2010 (A2010) is a function of both the intrinsic elimination rate, kint, and the ongoing exposure rate between sampling time points:
where D is the yearly dose rate in nanograms per year, and A2005 is the starting amount in 2005. As described by [Ritter et al. (2011)], intrinsic elimination rates can be estimated if ongoing exposure levels are known or can be estimated.

[3] = set-up: method as in Patterson et al. 2009; details: persons ≥ 60 years of age, ref Patterson et al. 2009, cited from earlier work; for NHANES (2003–2004) P95: 95th percentile; for NHANES (2003–2004) P50: 50th percentile, LODs variable
[4] = set-up: method as in van den Berg et al. 2006; details: WHO toxic equivalency factor; ref van den Berg et al. 2006; cited from earlier work
[5] = cited from earlier work; for Half-life of elimination, Rohde et al. 1999 (mean) / Half-life of elimination, Flesch-Janys et al. 1996 (median): from change in concentration; for Half-life of elimination, Rohde et al. 1999 (mean): n = 6, ages 41–73 years, ref Rohde et al. 1999; for Half-life of elimination, Flesch-Janys et al. 1996 (median): n = 26 to 48, mean age 48.7 years at first sampling, ref Flesch-Janys et al. 1996
[6] = based on change in estimated mass of the congener in the body, read-out: Elimination half-lives [median (P25–P75)], Apparent, mass based (converted)
[7] = based on change in serum lipid concentration, read-out: Elimination half-lives [median (P25–P75)], Apparent, concentration based (converted)
[8] = change in body mass after accounting for plausible background intake (Table 3), read-out: Elimination half-lives [median (P25–P75)], Estimated intrinsic (converted)

| Compound | Mean percent change [1] | Concentration 2004–2005, Mean ± SD [1] [pg/g lipid] | Concentration 2010, Mean ± SD [1] [pg/g lipid] | half-life [2, 6] [days] | half-life [2, 7] [days] | half-life [2, 8] [days] | NHANES (2003–2004) P95 [3] | TEF [4] | Half-life of elimination, Rohde et al. 1999 (mean) [5] [years] | Half-life of elimination, Flesch-Janys et al. 1996 (median) [5] [years] | NHANES (2003–2004) P50 [3] [pg/g lipid] | 2004–2005 median concentration ([1]; present study) [pg/g lipid] | Median concentration at first sampling time point ([5]; ref Flesch-Janys et al. (1996)) [pg/g lipid] |
| --- | --- | --- | --- | --- | --- | --- | --- | --- | --- | --- | --- | --- | --- |
| Clc1cc2c(cc1Cl)Oc1c(Cl)c(Cl)c(Cl)c(Cl)c1O2 [Congener 14HxCDD, 1,2,3,4,7,8-hexachlorodibenzo-p-dioxin] | –34% | 16.0 ± 11.9 | 10.5 ± 7.9 | 3000 | 2960 | 2560 | 15.1 pg/g lipid | 0.1 | 13.9 | 8.4 |  |  |  |
| Clc1cc2c(c(Cl)c1Cl)Oc1cc(Cl)c(Cl)c(Cl)c1O2 [Congener 16HxCDD, 1,2,3,6,7,8-hexachlorodibenzo-p-dioxin] | –31% | 136.6 ± 99.9 | 94.3 ± 70.8 | 4020 | 3690 | 3290 | 104 pg/g lipid | 0.1 | 11.6 | 13.1 | 47.3 |  |  |
| Clc1cc2c(c(Cl)c1Cl)Oc1c(cc(Cl)c(Cl)c1Cl)O2 [Congener 19HxCDD, 1,2,3,7,8,9-hexachlorodibenzo-p-dioxin] | –42% | 19.4 ± 14.5 | 11.3 ± 9.8 | 2480 | 2260 | 2300 | 16.2 pg/g lipid | 0.1 | 7.7 | 4.9 |  |  |  |
| Clc1cc2c(c(Cl)c1Cl)Oc1c(Cl)c(Cl)c(Cl)c(Cl)c1O2 [HpCDD, 1,2,3,4,7,8,9-heptachlorodibenzo-p-dioxin] | –46% | 159.9 ± 161.8 | 87.1 ± 83.3 | 2780 | 2560 | 2450 |  | 0.01 | 4.3 | 3.7 |  | 88.6 | 641 |
| Clc1c(Cl)c(Cl)c2c(c1Cl)Oc1c(Cl)c(Cl)c(Cl)c(Cl)c1O2 [OCDD, octachlorodibenzo-p-dioxin] | –41% | 1919.6 ± 2121.0 | 1124.7 ± 1232.0 | 3030 | 2850 | 2670 | 1,180 pg/g lipid | 0.0003 | 8.7 | 6.7 | 370 |  |  |
| Clc1cccc2c1Oc1c(Cl)c(Cl)c(Cl)c(Cl)c1O2 [PeCDD, pentachlorodibenzo-p-dioxin] | –28% | 19.7 ± 11.3 | 14.2 ± 8.6 | 4240 | 3910 | 3910 | 17.7 pg/g lipid | 1 | 13.9 | 15.7 | 8.0 |  |  |
| Clc1cc2c(cc1Cl)Oc1cc(Cl)c(Cl)cc1O2 [TCDD, 2,3,7,8-tetrachlorodibenzo-p-dioxin] | –39% | 21.1 ± 30.0 | 12.9 ± 19.6 | 2560 | 2370 | 2370 | 7.9 pg/g lipid | 1 | 8.7 | 7.2 |  |  |  |
